Source: PMC8879200, “Design, Synthesis, and Biological Evaluation of 4,4’-Difluorobenzhydrol Carbamates as Selective M1 Antagonists” (Pharmaceuticals, 2022)
Where “and” joins values, the source holds several entries; their conditions need not be identical. Equal entries are not always repeated. Where two headings read alike, the source gives them in different places.

How the values were obtained:
hM5 = biological target: T1, hM5 (Homo sapiens, UniProt P08912); assay: Competitive [3H]NMS radioligand binding, CHO-hM5 cell membranes; conditions: for Displacement ± SD of [3H]NMS binding, hM5: single ligand concentration corresponding to a Ki of 1 µM (Cheng-Prusoff); for x-Fold selectivity for hM1 vs. hM5: ratio of Ki values hM5/hM1
T1 construct: host or cells: CHO-K1, stably transfected
T1 sequence (P08912 1-532): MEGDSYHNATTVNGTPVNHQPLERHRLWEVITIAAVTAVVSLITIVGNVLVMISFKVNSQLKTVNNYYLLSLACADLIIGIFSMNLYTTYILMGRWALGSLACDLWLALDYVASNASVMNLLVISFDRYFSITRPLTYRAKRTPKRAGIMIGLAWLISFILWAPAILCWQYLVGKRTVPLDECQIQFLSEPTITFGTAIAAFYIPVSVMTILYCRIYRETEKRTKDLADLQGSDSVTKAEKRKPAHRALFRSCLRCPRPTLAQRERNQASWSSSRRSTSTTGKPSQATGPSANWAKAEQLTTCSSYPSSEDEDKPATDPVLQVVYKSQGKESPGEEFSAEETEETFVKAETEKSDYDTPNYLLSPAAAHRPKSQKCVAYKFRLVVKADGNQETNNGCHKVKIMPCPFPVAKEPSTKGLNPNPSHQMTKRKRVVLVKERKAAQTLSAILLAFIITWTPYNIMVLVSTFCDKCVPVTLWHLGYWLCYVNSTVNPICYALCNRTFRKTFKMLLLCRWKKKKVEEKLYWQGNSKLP
Description: (§1) We first assessed the carbamates’ affinities for human muscarinic acetylcholine receptors subtypes hM1–5 by means of a competitive radioligand binding assay displacing [N-methyl-^3H]scopolamine methyl chloride ([^3H]NMS) in cell membranes expressing the individual receptors.
(§2) Cell membranes bearing hM1-hM5 receptors were prepared as described previously. Briefly, stably transfected CHO-K1 cells were grown to at least 80% confluency in T175 flasks, washed with ice-cold DPBS, and scraped into a mixture of ice-cold of 2 mL 10 mM Tris-HCl, 1 mM EDTA-buffer, pH 7.4 and 200 µL protease inhibitor. A cell homogenate was prepared by passing the cell suspension through a G29 needle. The cell homogenates corresponding to two T175 flasks were combined and subsequently centrifuged (10 min, 1000 × g, 4 °C). Ultracentrifugation of the supernatant (1 h, 100,000 × g, 4 °C) yielded a membrane pellet, which was suspended in 250 µL 50 mM Tris-HCl buffer, pH 7.4 and stored at −80 °C.
(§3) Maximum binding was measured by using 5 µL DMSO, and nonspecific binding was measured by using 5 µL of 1 µM scopolamine in DMSO. […] The membrane-bound radioactivity was recovered by filtration through Whatman™ GF/B glass fibre filters pre-soaked in aqueous 0.1% PEI using an M-36 tygon tubed cell harvester (Brandel®, Gaithersburg, MD, USA). Membranes were washed 3 times with ice-cold washing buffer (50 mM Tris, pH 7.4) before being dried, transferred to 2 mL scintillation cocktail (UltimaGold™, high flashpoint LSC cocktail, PerkinElmer, Waltham, MA, USA) and counted in a β -counter (Hidex TDCR Liquid Scintillation Counter in CPM mode). IC50 values were calculated by a variable slope logistic regression using at least five distinct concentrations of test compounds, pipetted in triplicates.

hM1 = biological target: T2, hM1 (Homo sapiens, UniProt P11229); assay: Competitive [3H]NMS radioligand binding, CHO-hM1 cell membranes; conditions: for Displacement ± SD of [3H]NMS binding, hM1: single ligand concentration corresponding to a Ki of 1 µM (Cheng-Prusoff)
T2 construct: host or cells: CHO-K1, stably transfected
T2 sequence (P11229 1-460): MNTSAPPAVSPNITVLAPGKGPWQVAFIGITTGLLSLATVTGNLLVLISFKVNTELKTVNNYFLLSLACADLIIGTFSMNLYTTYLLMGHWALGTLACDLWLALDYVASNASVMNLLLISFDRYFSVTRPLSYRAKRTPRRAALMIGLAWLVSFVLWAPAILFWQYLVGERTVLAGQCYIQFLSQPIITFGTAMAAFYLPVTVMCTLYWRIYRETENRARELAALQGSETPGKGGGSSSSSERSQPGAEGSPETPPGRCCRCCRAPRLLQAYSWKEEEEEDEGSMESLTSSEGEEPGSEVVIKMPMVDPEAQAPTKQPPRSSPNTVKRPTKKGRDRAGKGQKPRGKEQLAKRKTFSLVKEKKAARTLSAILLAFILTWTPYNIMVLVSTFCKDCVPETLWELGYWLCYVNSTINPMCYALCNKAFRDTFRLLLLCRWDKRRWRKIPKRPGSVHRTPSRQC
Description: as §1, §2, §3

hM4 = biological target: T3, hM4 (Homo sapiens, UniProt P08173); assay: Competitive [3H]NMS radioligand binding, CHO-hM4 cell membranes; conditions: for Displacement ± SD of [3H]NMS binding, hM4: single ligand concentration corresponding to a Ki of 1 µM (Cheng-Prusoff); for x-Fold selectivity for hM1 vs. hM4: ratio of Ki values hM4/hM1
T3 construct: host or cells: CHO-K1, stably transfected
T3 sequence (P08173 1-479): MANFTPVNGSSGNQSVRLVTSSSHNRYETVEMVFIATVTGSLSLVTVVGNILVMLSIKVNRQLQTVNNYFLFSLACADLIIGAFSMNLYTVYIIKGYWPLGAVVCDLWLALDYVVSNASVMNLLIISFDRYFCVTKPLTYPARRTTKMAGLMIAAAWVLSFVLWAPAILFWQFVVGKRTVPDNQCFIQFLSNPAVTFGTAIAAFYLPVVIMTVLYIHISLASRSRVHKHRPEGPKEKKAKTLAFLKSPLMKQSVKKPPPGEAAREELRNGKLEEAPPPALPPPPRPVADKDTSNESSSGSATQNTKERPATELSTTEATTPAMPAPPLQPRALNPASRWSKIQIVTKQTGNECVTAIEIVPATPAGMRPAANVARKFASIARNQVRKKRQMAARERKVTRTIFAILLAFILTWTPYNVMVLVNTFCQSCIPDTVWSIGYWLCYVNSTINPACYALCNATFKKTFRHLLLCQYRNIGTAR
Description: as §1, §2, §3

[1] = High throughput HPLC-logD (lipophilicity); conditions: pH 7.4
Description: Briefly, a mixture of toluene (≥98%, Sigma-Aldrich, St. Louis, MO, USA) and triphenylene (≥99.9%, Carl Roth, Karlsruhe, Germany) was used as internal standard. Each sample was dissolved in the internal standard mixture. Using gradient elution, the injection volume was set to 7 µL, the flow rate was 1.5 mL/min, and the mobile phase consisted of a mixture of methanol and 0.01 M sodium phosphate buffer pH 7.4. The HPLC-logD values were derived from the measured retention times following the previously published equation [27, 30].

hM3 = biological target: T4, hM3 (Homo sapiens, UniProt P20309); assay: Competitive [3H]NMS radioligand binding, CHO-hM3 cell membranes; conditions: for Displacement ± SD of [3H]NMS binding, hM3: single ligand concentration corresponding to a Ki of 1 µM (Cheng-Prusoff); for Ki: read-out: Affinity: Ki ± SD, hM3; for x-Fold selectivity for hM1 vs. hM3: ratio of Ki values hM3/hM1
T4 construct: host or cells: CHO-K1, stably transfected
T4 sequence (P20309 whole entry): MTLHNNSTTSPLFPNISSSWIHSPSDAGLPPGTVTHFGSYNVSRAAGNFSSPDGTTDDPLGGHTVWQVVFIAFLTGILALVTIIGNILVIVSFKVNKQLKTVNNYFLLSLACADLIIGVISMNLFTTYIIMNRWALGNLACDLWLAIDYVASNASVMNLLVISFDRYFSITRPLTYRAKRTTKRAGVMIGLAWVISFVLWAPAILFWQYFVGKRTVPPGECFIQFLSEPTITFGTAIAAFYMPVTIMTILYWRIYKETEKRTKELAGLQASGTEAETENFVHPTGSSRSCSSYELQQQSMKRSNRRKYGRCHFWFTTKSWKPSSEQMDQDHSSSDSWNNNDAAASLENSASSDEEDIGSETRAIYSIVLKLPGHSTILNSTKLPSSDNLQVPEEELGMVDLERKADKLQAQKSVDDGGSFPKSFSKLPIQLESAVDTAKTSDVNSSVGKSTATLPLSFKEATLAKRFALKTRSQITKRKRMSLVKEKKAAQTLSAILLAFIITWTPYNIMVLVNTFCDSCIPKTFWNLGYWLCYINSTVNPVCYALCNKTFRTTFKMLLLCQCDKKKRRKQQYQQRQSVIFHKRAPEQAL
Description: as §1, §2, §3

hM2 = biological target: T5, hM2 (Homo sapiens, UniProt P08172); assay: Competitive [3H]NMS radioligand binding, CHO-hM2 cell membranes; conditions: for Displacement ± SD of [3H]NMS binding, hM2: single ligand concentration corresponding to a Ki of 1 µM (Cheng-Prusoff); for Ki: read-out: Affinity: Ki ± SD, hM2; for x-Fold selectivity for hM1 vs. hM2: ratio of Ki values hM2/hM1
T5 construct: host or cells: CHO-K1, stably transfected
T5 sequence (P08172 1-466): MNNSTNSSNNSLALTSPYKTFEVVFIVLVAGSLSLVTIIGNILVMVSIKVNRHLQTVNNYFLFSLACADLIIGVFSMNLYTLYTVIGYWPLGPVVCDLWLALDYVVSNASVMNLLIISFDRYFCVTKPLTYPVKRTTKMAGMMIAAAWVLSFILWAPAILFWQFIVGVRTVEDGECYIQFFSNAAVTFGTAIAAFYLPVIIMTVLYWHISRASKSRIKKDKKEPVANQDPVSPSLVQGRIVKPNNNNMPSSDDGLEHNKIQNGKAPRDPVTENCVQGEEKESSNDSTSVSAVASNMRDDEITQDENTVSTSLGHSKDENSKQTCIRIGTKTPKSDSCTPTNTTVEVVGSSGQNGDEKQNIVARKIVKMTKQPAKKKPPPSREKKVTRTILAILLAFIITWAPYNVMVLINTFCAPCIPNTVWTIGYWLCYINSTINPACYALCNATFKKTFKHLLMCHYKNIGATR
Description: as §1, §2, §3

[2] = Stability in fully supplemented RPMI1640 cell culture medium; format: in vitro ADME; conditions: fully supplemented RPMI1640, ambient temperature, after 24 h
Description: Since the decomposition in cell culture medium of compounds designated for biological testing could impair potential assay readouts, the stabilities of one tertiary carbamate (3) and one secondary carbamate (7) were investigated as representatives for the compound set 1–12. Gratifyingly, the rate of decomposition in fully supplemented RPMI1640 cell culture medium at ambient temperature has been fairly slow, with > 95% of both compounds remaining intact after 24 h (Supplementary Materials, Figure S3). Such stability is adequate with the requirements for carbon-11 labelled PET tracers of around 2–3 half-lives.
The stabilities of 3 and 7 were measured using the HPLC gradient method as described for the purity determination. 4 µL of a test compound’s stock solution in DMSO was diluted with fully supplemented RPMI1640 cell culture medium (10% FBS, 1% L-glutamine, without antibiotics). The stability was measured at ambient temperature and the column oven was set to 20 °C. The samples were measured at 0, 30, 60, 120 min and 24 h.

[3] = inhibition of [3H]NMS binding, CHO-hM5 membranes, read-out: Affinity: Ki ± SD, hM5
[4] = inhibition of [3H]NMS binding, CHO-hM1 membranes, read-out: Affinity: Ki ± SD, hM1
[5] = inhibition of [3H]NMS binding, CHO-hM4 membranes, read-out: Affinity: Ki ± SD, hM4

| Compound | Displacement ± SD of [3H]NMS binding, hM5 (hM5) | Displacement ± SD of [3H]NMS binding, hM1 (hM1) | Displacement ± SD of [3H]NMS binding, hM4 (hM4) | chromatographic logD [1] | Displacement ± SD of [3H]NMS binding, hM3 (hM3) | Displacement ± SD of [3H]NMS binding, hM2 (hM2) | Ki (hM5; [3]) | Ki (hM1; [4]) | Ki (hM4; [5]) | Ki (hM3) | Compound remaining intact in cell culture medium [2] | Ki (hM2) | Ki (hM5) | Ki (hM1) | Ki (hM4) | x-Fold selectivity for hM1 vs. hM5 (hM5) | x-Fold selectivity for hM1 vs. hM4 (hM4) | x-Fold selectivity for hM1 vs. hM3 (hM3) | x-Fold selectivity for hM1 vs. hM2 (hM2) |
| --- | --- | --- | --- | --- | --- | --- | --- | --- | --- | --- | --- | --- | --- | --- | --- | --- | --- | --- | --- |
| CN1CCCC1CCNC(=O)OC(c1ccc(F)cc1)c1ccc(F)cc1 (stereo not drawn) [Compound 11, Bis(4-fluorophenyl)methyl (2-(1-methylpyrrolidin-2-yl)ethyl)carbamate] | 59 ± 17% | 53 ± 8% | 54 ± 13% | 2.5 ± 0.3 | 62 ± 3% | 37 ± 15% | – | – | – | – | – | – | – | – | – | – | – | – | – |
| CN1CC2CC1CN2C(=O)OC(c1ccc(F)cc1)c1ccc(F)cc1 (stereo not drawn) [Compound 3, Bis(4-fluorophenyl)methyl5-methyl-2,5-diazabicyclo[2.2.1]heptane-2-carboxylate] | – | – | – | 2.69 ± 0.01 | – | – | 68 ± 22.1 nM | 33.1 ± 8.1 nM | 115 ± 51 nM | 358 ± 83 nM | > 95% | > 1000 nM | – | – | – | – | – | – | – |
| CN1CCCN(C(=O)OC(c2ccc(F)cc2)c2ccc(F)cc2)CC1 [Compound 2, Bis(4-fluorophenyl)methyl 4-methyl-1,4-diazepane-1-carboxylate] | – | – | – | 3.2 ± 0.02 | – | – | 4.8 ± 1.6 nM | 1.2 ± 0.4 nM | 14.4 ± 5.5 nM | 28.4 ± 10.7 nM | – | 227 ± 85.9 nM | – | – | – | – | – | – | – |
| CN1[C@@H]2CC[C@H]1CN(C(=O)OC(c1ccc(F)cc1)c1ccc(F)cc1)C2 [Compound 4, Bis(4-fluorophenyl)methyl (1R,5S)-8-methyl-3,8-diazabicyclo[3.2.1]octane-3 carboxylate] | – | – | – | 3.28 ± 0.03 | – | – | – | – | – | 142 ± 24.2 nM | – | 850 ± 39.8 nM | 41.8 ± 14.8 nM | 16.5 ± 2.8 nM | 19.6 ± 5.5 nM | – | – | – | – |
| CN1CCN(C(=O)OC(c2ccc(F)cc2)c2ccc(F)cc2)CC1 [Compound 1, Bis(4-fluorophenyl)methyl 4-methylpiperazine-1-carboxylate] | – | – | – | 3.16 ± 0.01 | – | – | 50.6 ± 3.9 nM | 15.2 ± 3.6 nM | 54.8 ± 20.5 nM | 226 ± 85.2 nM | – | > 1000 nM | – | – | – | – | – | – | – |
| CN1CCC(NC(=O)OC(c2ccc(F)cc2)c2ccc(F)cc2)CC1 [Compound 6, Bis(4-fluorophenyl)methyl (1-methylpiperidin-4-yl)carbamate] | 54 ± 8% | 52 ± 8% | 48 ± 9% | 3.25 ± 0.04 | 29 ± 5% | 10 ± 7% | – | – | – | – | – | – | – | – | – | – | – | – | – |
| CN1CCC(CNC(=O)OC(c2ccc(F)cc2)c2ccc(F)cc2)C1 (stereo not drawn) [Compound 10, Bis(4-fluorophenyl)methyl ((1-methylpyrrolidin-3-yl)methyl)carbamate] | – | – | – | 2.69 ± 0.01 | – | – | 295 ± 32.8 nM | 239 ± 67.9 nM | 238 ± 104 nM | 277 ± 45.4 nM | – | > 1000 nM | – | – | – | 1.2 fold | 1.0 fold | 1.2 fold | >4 fold |
| CN1CCOCC1CNC(=O)OC(c1ccc(F)cc1)c1ccc(F)cc1 (stereo not drawn) [Compound 12, Bis(4-fluorophenyl)methyl ((4-methylmorpholin-3-yl)methyl)carbamate] | 43 ± 11% | 39 ± 5% | 20 ± 8% | 2.82 ± 0.04 | 25 ± 9% | 8 ± 5% | – | – | – | – | – | – | – | – | – | – | – | – | – |
| CN1CC2(CCN(C(=O)OC(c3ccc(F)cc3)c3ccc(F)cc3)C2)C1 [Compound 5, Bis(4-fluorophenyl)methyl 2-methyl-2,6-diazaspiro[3.4]octane-6-carboxylate] | – | – | – | 2.69 ± 0.01 | – | – | 231 ± 25.7 nM | 24.9 ± 6.2 nM | 150 ± 52.9 nM | 165 ± 37.5 nM | – | > 1000 nM | – | – | – | 9 fold and 9.3 fold | 6.0 fold | 6.6 fold | >40 fold |
